Source: US10548898B2, “Quinazoline compounds” (Gilead Sciences, Inc., priority 2014, dated 2020)
Where two headings read alike, the source gives them in different places.

Legend:
Format in all cases: cell-based
[1] = tested on: HIV-1 recombinant strain encoding reverse transcriptase mutation Y181C; test: Resistance profile against HIV-1 RT mutants in MT-2 cells, Y181C; conditions: ratio of mean EC50 mutant/WT virus
Procedure: (§1) Compounds were tested for antiviral activity against a panel of NNRTI resistant viruses. A panel of 8 clonal site-directed mutant viruses representing the major resistance development pathways against rilpivirine (“RPV”), efavirenz (“EFV”), and nevirapine (“NVP”), containing both single and double mutations within HIV-1 reverse transcriptase was employed. Further details and background can be found in Janssen et al. J. Med. Chem, 2005, 48, 1901-1909; Das et al., Proc. Nat. Acad. Sci., 2008, vol., 105, no. 5, 1466-1471; and Kuroda et al., Nature Chemistry, 2013, DOI: 10.1038/NCHEM. 1559. […] HIV-1 recombinant strains encoding reverse transcriptase mutations K103N, Y181C, Y188L, G190A, K103N/Y181C, L1001/Y181C, E138K or E138KIM 184V were constructed by site-directed mutagenesis. Wild-type and mutant viruses were prepared by transfecting infectious proviral HXB2-based cDNA clones into MT-2 cells and harvesting the cell supernatants. MT-2 cells were infected with wild-type and mutant HIV-1 strains at a multiplicity of infection (MOI) of 0.005 by gentle mixing for 3 hours at 37° C. and then added at a density of 16,667 cells per well in 50 μL complete RPMI cell culture media (containing 10% fetal bovine serum (FBS) and 10% penicillin-streptomycin) to 96-well plates containing 50 μL of a 3-fold serial dilution of test compounds in RPMI medium. After 5 days of incubation at 37° C. in a humidified incubator in the presence of 5% CO2. 100 μL of Cell Titer-Glo™ Reagent (Promega Biosciences, Inc., Madison, Wis.) was added to each well and the relative light units (RLU) measured on an Envision plate reader. […] The EC50 value was defined as the compound concentration inducing a 50% decrease in virus replication. Data analysis for the antiviral activity observed in MT-2 cells was performed using XL-Fit™ software (IDBS, Guildford, Surrey, UK) to calculate EC50 from an 8-point dose-response curve using the following equation:
(§2) [formula] where y=virus inhibition, x=drug concentration, M=maximum inhibition, H=minimum inhibition and n=Hill coefficient, EC50 values (mean±standard deviation) were calculated from at least three independent experiments performed in triplicate. The level of resistance was calculated as a ratio of the mean EC50 for each mutant/WT virus. Results are disclosed in FIG. 1 and in Tables 3 and 4 below.

[2] = tested on: HIV-1 recombinant strain encoding reverse transcriptase mutation E138K/M184V; test: Resistance profile against HIV-1 RT mutants in MT-2 cells, E138K/M184V; conditions: ratio of mean EC50 mutant/WT virus
Procedure: Compounds were tested for antiviral activity against a panel of NNRTI resistant viruses. A panel of 8 clonal site-directed mutant viruses representing the major resistance development pathways against rilpivirine (“RPV”), efavirenz (“EFV”), and nevirapine (“NVP”), containing both single and double mutations within HIV-1 reverse transcriptase was employed. Further details and background can be found in Janssen et al. J. Med. Chem, 2005, 48, 1901-1909; Das et al., Proc. Nat. Acad. Sci., 2008, vol., 105, no. 5, 1466-1471; and Kuroda et al., Nature Chemistry, 2013, DOI: 10.1038/NCHEM. 1559. […] HIV-1 recombinant strains encoding reverse transcriptase mutations K103N, Y181C, Y188L, G190A, K103N/Y181C, L1001/Y181C, E138K or E138KIM 184V were constructed by site-directed mutagenesis. Wild-type and mutant viruses were prepared by transfecting infectious proviral HXB2-based cDNA clones into MT-2 cells and harvesting the cell supernatants. MT-2 cells were infected with wild-type and mutant HIV-1 strains at a multiplicity of infection (MOI) of 0.005 by gentle mixing for 3 hours at 37° C. and then added at a density of 16,667 cells per well in 50 μL complete RPMI cell culture media (containing 10% fetal bovine serum (FBS) and 10% penicillin-streptomycin) to 96-well plates containing 50 μL of a 3-fold serial dilution of test compounds in RPMI medium. After 5 days of incubation at 37° C. in a humidified incubator in the presence of 5% CO2. 100 μL of Cell Titer-Glo™ Reagent (Promega Biosciences, Inc., Madison, Wis.) was added to each well and the relative light units (RLU) measured on an Envision plate reader. […] The EC50 value was defined as the compound concentration inducing a 50% decrease in virus replication. […]
as §2, with “Results are disclosed in FIG. 1 and in Tables 3 and 4 below.” left out

[3] = tested on: HIV-1 reverse transcriptase mutant Y181C; test: High throughput cytopathic effect assay in MT-4 cells, Y181C mutant; conditions: for EC50: Human immunodeficiency virus 1, MT4, 120 h, read-out: MT4 EC50 (nM) against Y181C; for FC against mutant Y181C: fold change of MT4 EC50 versus w.t. assay 2
Outline: (§3)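 MT-4 cells infected 1 h at 37 °C at MOI 0.0005, then plated onto ten-point half-log compound dilutions and incubated 5 days. Cell viability read by CellTiter-Glo luminescence, normalized to AZT and DMSO controls as % CPE protection; EC50 from four-parameter fit.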

[4] = tested on: HIV-1 recombinant strain encoding reverse transcriptase mutation K103N/Y181C; test: Resistance profile against HIV-1 RT mutants in MT-2 cells, K103N/Y181C; conditions: ratio of mean EC50 mutant/WT virus
Procedure: as §1, §2

[5] = tested on: HIV-1 recombinant strain encoding reverse transcriptase mutation G190A; test: Resistance profile against HIV-1 RT mutants in MT-2 cells, G190A; conditions: ratio of mean EC50 mutant/WT virus
Procedure: as §1, §2

hERG channels = molecular target: T1, hERG channels (Homo sapiens, UniProt Q12809); test: hERG assay, whole cell recordings in CHO cell line stably expressing hERG channels; conditions: CHO cells, whole cell patch clamp; greater than values indicate the maximum achievable concentration in the assay
T1 construct: host or cells: CHO cell line stably expressing hERG
T1 sequence (Q12809 whole entry): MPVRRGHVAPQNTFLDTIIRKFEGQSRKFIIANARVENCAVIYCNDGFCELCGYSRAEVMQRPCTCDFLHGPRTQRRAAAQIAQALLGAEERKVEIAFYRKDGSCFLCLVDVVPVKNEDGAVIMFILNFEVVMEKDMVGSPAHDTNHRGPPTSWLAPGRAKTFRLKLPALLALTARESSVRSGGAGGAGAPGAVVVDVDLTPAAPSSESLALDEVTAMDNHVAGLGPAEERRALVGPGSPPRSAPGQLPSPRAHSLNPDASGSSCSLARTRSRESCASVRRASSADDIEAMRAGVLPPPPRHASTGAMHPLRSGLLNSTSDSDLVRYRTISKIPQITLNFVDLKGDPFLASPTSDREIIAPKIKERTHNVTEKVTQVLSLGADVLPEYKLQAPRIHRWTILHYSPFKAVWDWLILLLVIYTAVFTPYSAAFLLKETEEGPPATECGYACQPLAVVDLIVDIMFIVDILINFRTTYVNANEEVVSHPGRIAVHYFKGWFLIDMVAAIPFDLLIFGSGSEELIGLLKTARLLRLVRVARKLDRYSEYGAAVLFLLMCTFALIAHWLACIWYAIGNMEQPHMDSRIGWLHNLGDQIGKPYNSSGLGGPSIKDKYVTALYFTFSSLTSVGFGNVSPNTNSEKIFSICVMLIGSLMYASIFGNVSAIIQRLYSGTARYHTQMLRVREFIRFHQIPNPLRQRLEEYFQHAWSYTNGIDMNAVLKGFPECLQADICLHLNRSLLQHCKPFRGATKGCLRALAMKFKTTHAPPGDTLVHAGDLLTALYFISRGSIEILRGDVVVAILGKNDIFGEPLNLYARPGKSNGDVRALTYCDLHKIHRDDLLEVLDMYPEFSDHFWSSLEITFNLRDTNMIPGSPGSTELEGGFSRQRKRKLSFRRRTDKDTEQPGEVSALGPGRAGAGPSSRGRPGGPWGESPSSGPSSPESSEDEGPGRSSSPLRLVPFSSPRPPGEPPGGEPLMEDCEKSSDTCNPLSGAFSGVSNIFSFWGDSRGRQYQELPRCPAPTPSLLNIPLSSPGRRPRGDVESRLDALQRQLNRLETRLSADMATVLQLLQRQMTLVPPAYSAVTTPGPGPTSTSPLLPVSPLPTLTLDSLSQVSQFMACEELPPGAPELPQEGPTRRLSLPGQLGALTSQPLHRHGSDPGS
Procedure: AVIVA's CHO cell line, which stably expresses hERG channels, was used for the study. Cells were cultured in DMEM/F12 containing 10% FBS, 1% penicillin/streptomycin and 500 μg/ml G418. Before testing, cells were harvested using Accumax (Innovative Cell Technologies).
External Solution: 2 mM CaCl2; 2 mM MgCl2; 4 mM KCl; 150 mM NaCl; 10 mM Glucose; 10 mM HEPES; 305-315 mOsm; pH 7.4 (adjusted with 5M NaOH.)
Internal Solution: 140 mM KCl; 10 mM MgCl2; 6 mM EGTA; 5 mM HEPES-Na; 5 mM ATP-Mg; 295-305 mOsm; pH 7.25 (adjusted with 1M KOH).
Whole cell recordings were performed using PX 7000A (Axon Instruments) with AVIVA's SealChip™ technology. Cells were voltage clamped at a holding potential of −80 mV. The hERG current was then activated by a depolarizing step to −50 mV for 300 ms. This first step at −50 mV was used as a baseline for measuring peak amplitude of the tail current. Next, a voltage step to +20 mV was applied for 5 s to activate the channels. Finally, a step back to −50 mV for 5 s removed activation and the deactivating tail current was recorded.
All test articles were prepared from 10 mM DMSO stock solutions. Solutions were mixed by sonication for 20 min, followed by vigorous vortexing. Prior to testing, compounds were diluted to test concentrations in glass vials using External Solution. Dilutions were prepared no longer than 20 min prior to use.
After achieving whole cell configuration, cells were monitored for 90 s to assess stability and then washed with External Solution for 66 s. The voltage protocol was then applied to the cells every 12 s throughout the procedure. Only stable cells with recording parameters above threshold were allowed to enter the drug addition procedure.
External solution containing 0.1% DMSO (vehicle) was applied to the cells to establish a baseline. After allowing the current to stabilize for 3 to 10 min, test articles were applied. Test article solutions were added to cells in 4 separate additions. Cells were kept in test solution until effect of the test article reached steady state, to a maximum of 12 min. Next, 1 μM cisapride (positive control) was added. Finally, washout with External Solution was performed until the recovery current reached steady state.
Data analysis was performed using DataXpress (Axon Instruments), Clampfit (Axon Instruments) and Origin (OriginLab Corporation) software. The greater than values in Table 5 indicate the maximum achievable concentration in the assay (e.g., compounds achieving their solubility limit).

[6] = tested on: HIV-1 recombinant strain encoding reverse transcriptase mutation K103N; test: Resistance profile against HIV-1 RT mutants in MT-2 cells, K103N; conditions: ratio of mean EC50 mutant/WT virus
Procedure: as §1, §2

[7] = tested on: HIV-1 reverse transcriptase mutant K103N; test: High throughput cytopathic effect assay in MT-4 cells, K103N mutant; conditions: for EC50: Human immunodeficiency virus 1, MT4, 120 h, read-out: MT4 EC50 (nM) against K103N; for FC against mutant K103N: fold change of MT4 EC50 versus w.t. assay 2
Outline: as §3

[8] = tested on: HIV-1 recombinant strain encoding reverse transcriptase mutation L100I/Y181C; test: Resistance profile against HIV-1 RT mutants in MT-2 cells, L100I/Y181C; conditions: ratio of mean EC50 mutant/WT virus
Procedure: as §1, §2

[9] = tested on: HIV-1 recombinant strain encoding reverse transcriptase mutation Y188L; test: Resistance profile against HIV-1 RT mutants in MT-2 cells, Y188L; conditions: ratio of mean EC50 mutant/WT virus
Procedure: as §1, §2

HIV-1 HBX2 (wild type) = test: High throughput cytopathic effect assay in MT-4 cells, wild type HIV-1
Outline: as §3

[10] = Human immunodeficiency virus 1, MT4, 120 h, MT-4 cells, 5 days, cytopathic effect, Cell TiterGlo, read-out: MT4 EC50 (nM) against w.t.
[11] = Human immunodeficiency virus 1, MT4, read-out: MT4 EC50 (nM) against w.t. assay 2

Cc1cc(/C=C/C#N)cc(C)c1-c1cccc2c(N)nc(Nc3ccc(C#N)cc3)nc12 [Compound 2, (E)-4-((4-Amino-8-(4-(2-cyanovinyl)-2,6-dimethylphenyl)quinazolin-2-yl)amino)benzonitrile]
Biology resistance panel-low throughput fold change (FC) Y181C [1]: 4.0 | Biology resistance panel-low throughput fold change (FC) E138K/M184V [2]: 5.0 | EC50 [3]: 10.9 nM | FC against mutant Y181C [3]: 3.0 | Biology resistance panel-low throughput fold change (FC) K103N/Y181C [4]: 4.1 | Biology resistance panel-low throughput fold change (FC) G190A [5]: 1.6 | hERG (hERG channels): >1 µM | Biology resistance panel-low throughput fold change (FC) K103N [6]: 0.9 | EC50 [7]: 4 nM | FC against mutant K103N [7]: 1.1 | Biology resistance panel-low throughput fold change (FC) L100I/Y181C [8]: 1.6 | Biology resistance panel-low throughput fold change (FC) Y188L [9]: 10.0 | EC50 (HIV-1 HBX2 (wild type); [10]): 3.7 nM | EC50 (HIV-1 HBX2 (wild type); [11]): 3.6 nM

Cc1cc(/C=C/C#N)cc(C)c1-c1cccc2c(=O)[nH]c(Nc3ccc(C#N)cn3)nc12 [Compound 34, (E)-6-((8-(4-(2-Cyanovinyl)-2,6-dimethylphenyl)-4-oxo-3,4-dihydroquinazolin-2-yl)amino)nicotinonitrile]
Biology resistance panel-low throughput fold change (FC) Y181C [1]: 3.4 | Biology resistance panel-low throughput fold change (FC) E138K/M184V [2]: 4.2 | EC50 [3]: 11.3 nM | FC against mutant Y181C [3]: 3.7 | Biology resistance panel-low throughput fold change (FC) K103N/Y181C [4]: 12.4 | hERG (hERG channels): >3 µM | Biology resistance panel-low throughput fold change (FC) K103N [6]: 1.4 | EC50 [7]: 3.2 nM | FC against mutant K103N [7]: 1.0 | Biology resistance panel-low throughput fold change (FC) L100I/Y181C [8]: 1.7 | Biology resistance panel-low throughput fold change (FC) Y188L [9]: 18.7 | EC50 (HIV-1 HBX2 (wild type); [10]): 2.4 nM | EC50 (HIV-1 HBX2 (wild type); [11]): 3 nM

O=C1Nc2ccc(Cl)cc2[C@@](C#CC2CC2)(C(F)(F)F)O1 [Efavirenz, reference compound]
Biology resistance panel-low throughput fold change (FC) Y181C [1]: 3.6 | EC50 [3]: 3.8 nM | FC against mutant Y181C [3]: 2.3 | Biology resistance panel-low throughput fold change (FC) K103N/Y181C [4]: 83.5 | Biology resistance panel-low throughput fold change (FC) G190A [5]: 14.8 | Biology resistance panel-low throughput fold change (FC) K103N [6]: 48.1 | EC50 [7]: 46.4 nM | FC against mutant K103N [7]: 28.9 | Biology resistance panel-low throughput fold change (FC) L100I/Y181C [8]: >200 | Biology resistance panel-low throughput fold change (FC) Y188L [9]: 132.5 | EC50 (HIV-1 HBX2 (wild type); [10]): 1.3 nM | EC50 (HIV-1 HBX2 (wild type); [11]): 1.6 nM

Cc1cc(/C=C/C#N)cc(C)c1Nc1ccnc(Nc2ccc(C#N)cc2)n1 [Rilpivirine, reference compound]
Biology resistance panel-low throughput fold change (FC) Y181C [1]: 4.6 | Biology resistance panel-low throughput fold change (FC) E138K/M184V [2]: 3.0 | EC50 [3]: 3.8 nM | FC against mutant Y181C [3]: 3.1 | Biology resistance panel-low throughput fold change (FC) K103N/Y181C [4]: 7.7 | Biology resistance panel-low throughput fold change (FC) G190A [5]: 0.8 | hERG (hERG channels): 0.5 µM | Biology resistance panel-low throughput fold change (FC) K103N [6]: 1.0 | EC50 [7]: 1.5 nM | FC against mutant K103N [7]: 1.2 | Biology resistance panel-low throughput fold change (FC) L100I/Y181C [8]: 18.1 | Biology resistance panel-low throughput fold change (FC) Y188L [9]: 22.8 | EC50 (HIV-1 HBX2 (wild type); [10]): 0.9 nM | EC50 (HIV-1 HBX2 (wild type); [11]): 1.3 nM
